Activity calls are given as the source filed them.
How the values were obtained:
[1] = target: T1, ATP-dependent translocase ABCB1 (Homo sapiens, UniProt P08183); test: inhibition of BCRP-mediated JC-1 efflux – Ig-MXP3 cells, flow cytometry, set 2, dose response (AID 504566); assay type: functional; details: read-out: EC50_MICROM_;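 further: flow cytometry median green fluorescence of retained JC-1 dye; potency of efflux pump inhibition measured as rising substrate retention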
[2] = target: T1, ATP-dependent translocase ABCB1; test: P-gp JC-1 efflux blockade concentration-response – Jurkat-DNR cells, flow cytometry, set 2, dose response (AID 504569); assay type: functional; details: read-out: EC50_MICROM_;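 further: potency of pump inhibitors that raise cellular JC-1 green fluorescence up to the nicardipine level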
[3] = blockers of CRF-binding protein–CRF-R2 complex – cell-based, uHTS hits, 384-well, dose response (AID 651639); assay type: functional, Homo sapiens; details: read-out: IC50_Mean
[4] = target: T2, Corticotropin-releasing factor receptor 2/Corticotropin-releasing factor-binding protein (Homo sapiens, UniProt P24387+Q13324); test: activators of CRF receptor 2 with binding protein – uHTS hits, confirmation (AID 602473); assay type: functional; details: read-out: EC50_Mean
T2 sequence (Q13324 whole entry): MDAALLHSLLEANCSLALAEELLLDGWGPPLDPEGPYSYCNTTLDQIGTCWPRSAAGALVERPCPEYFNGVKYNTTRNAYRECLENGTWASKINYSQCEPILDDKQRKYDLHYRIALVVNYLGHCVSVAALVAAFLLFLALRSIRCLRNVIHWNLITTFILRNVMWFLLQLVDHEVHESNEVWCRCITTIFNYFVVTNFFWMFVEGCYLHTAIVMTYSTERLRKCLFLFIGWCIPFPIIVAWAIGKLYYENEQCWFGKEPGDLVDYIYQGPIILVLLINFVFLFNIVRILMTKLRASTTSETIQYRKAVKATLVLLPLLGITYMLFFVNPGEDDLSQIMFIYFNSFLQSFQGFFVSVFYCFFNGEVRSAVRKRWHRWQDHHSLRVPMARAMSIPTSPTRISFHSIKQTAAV
T2 sequence (P24387 whole entry): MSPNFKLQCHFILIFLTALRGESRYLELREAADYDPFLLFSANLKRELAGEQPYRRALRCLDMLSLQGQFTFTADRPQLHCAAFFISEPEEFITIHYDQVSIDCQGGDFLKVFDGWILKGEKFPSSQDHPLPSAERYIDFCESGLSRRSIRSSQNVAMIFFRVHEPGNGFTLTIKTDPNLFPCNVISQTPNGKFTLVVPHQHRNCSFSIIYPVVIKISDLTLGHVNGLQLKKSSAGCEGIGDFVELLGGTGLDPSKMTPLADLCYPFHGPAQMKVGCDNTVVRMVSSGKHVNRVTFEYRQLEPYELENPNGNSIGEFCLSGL

[5] = target: T2, Corticotropin-releasing factor receptor 2/Corticotropin-releasing factor-binding protein; test: Dose Response confirmation of uHTS hits for small molecule antagonists of the CRF-binding protein and CRF-R2 receptor complex.; assay type: functional; details: read-out: IC50_Mean

T1 sequence (P08183 whole entry): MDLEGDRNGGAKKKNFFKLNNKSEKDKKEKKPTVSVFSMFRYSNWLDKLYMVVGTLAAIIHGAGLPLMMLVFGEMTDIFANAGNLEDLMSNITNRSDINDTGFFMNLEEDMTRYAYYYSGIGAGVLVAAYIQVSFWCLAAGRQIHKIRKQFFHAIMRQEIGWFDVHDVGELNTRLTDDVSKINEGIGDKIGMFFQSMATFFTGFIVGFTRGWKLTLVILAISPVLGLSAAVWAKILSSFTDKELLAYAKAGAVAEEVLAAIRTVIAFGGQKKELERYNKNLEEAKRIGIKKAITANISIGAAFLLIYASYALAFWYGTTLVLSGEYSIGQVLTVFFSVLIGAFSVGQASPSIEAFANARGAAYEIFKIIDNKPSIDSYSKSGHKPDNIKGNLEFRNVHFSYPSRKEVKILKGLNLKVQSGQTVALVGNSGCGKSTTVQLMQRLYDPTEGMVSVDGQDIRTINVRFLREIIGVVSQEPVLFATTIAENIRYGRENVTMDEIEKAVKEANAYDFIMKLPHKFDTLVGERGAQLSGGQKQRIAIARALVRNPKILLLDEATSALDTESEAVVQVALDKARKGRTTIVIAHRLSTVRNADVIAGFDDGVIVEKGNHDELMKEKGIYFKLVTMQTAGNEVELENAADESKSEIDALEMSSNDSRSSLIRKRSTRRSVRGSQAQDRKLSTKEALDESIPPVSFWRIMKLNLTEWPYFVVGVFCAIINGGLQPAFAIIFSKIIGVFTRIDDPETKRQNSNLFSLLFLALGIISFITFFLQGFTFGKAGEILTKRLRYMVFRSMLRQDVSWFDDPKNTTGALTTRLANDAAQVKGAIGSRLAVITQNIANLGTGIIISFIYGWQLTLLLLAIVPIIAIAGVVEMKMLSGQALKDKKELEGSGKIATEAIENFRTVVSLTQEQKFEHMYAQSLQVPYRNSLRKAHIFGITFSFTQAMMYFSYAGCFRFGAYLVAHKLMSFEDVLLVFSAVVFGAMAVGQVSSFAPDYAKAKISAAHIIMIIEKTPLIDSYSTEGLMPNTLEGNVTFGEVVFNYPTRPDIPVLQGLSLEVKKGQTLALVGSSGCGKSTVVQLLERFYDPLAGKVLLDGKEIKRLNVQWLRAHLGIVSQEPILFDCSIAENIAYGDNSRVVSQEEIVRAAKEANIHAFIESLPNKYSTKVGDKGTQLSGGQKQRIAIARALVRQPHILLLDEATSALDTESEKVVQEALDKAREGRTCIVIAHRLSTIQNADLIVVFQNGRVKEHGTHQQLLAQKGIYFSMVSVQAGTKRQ

Row | SMILES | EC50 [1] | EC50 [2] | IC50 [3] | EC50 [4] | IC50 [5]
1 | Cc1ccc(-c2cc3nc(C)cc(N4CCN(C(=O)c5ccoc5)CC4)n3n2)cc1 | 4.95 µM (active) | 5.56 µM (active) | – | – | –
2 | COCCN=C(S)N1CCc2cc(OC)c(OC)cc2C1COc1cc(C)cc(C)c1 (stereo not given) | – | – | > 20 µM (inactive) | > 53 µM (inactive) | 32.1 µM (active)

Reference: ChEMBL document CHEMBL1201862, “PubChem BioAssay data set” (2004)
